Test results taken from ChEMBL document CHEMBL1201862, “PubChem BioAssay data set” (2004).
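48-hour exposure; five concentrations; linearly interpolated endpoints. GI50 = concentration required for 50% inhibition of growth.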 Active and inactive are the calls of the source. Cut-off read from the data, not from the text of the source: active = GI50 up to about 1.1 µM and inactive = higher.

Columns and labels:
Test in all cases: DTP human tumour cell line panel, 48 h
NCI-H23 = tested on: NCI-H23
SF-295 = tested on: SF-295
SNB-19 = tested on: SNB-19
OVCAR-8 = tested on: OVCAR-8
HCT-116 = tested on: HCT-116
SK-MEL-5 = tested on: SK-MEL-5
UACC-257 = tested on: UACC-257
MDA-MB-435 = tested on: MDA-MB-435
PC-3 = tested on: PC-3
RPMI-8226 = tested on: RPMI-8226
MDA-MB-231 = tested on: MDA-MB-231
U-251 = tested on: U-251
EKVX = tested on: EKVX
MOLT-4 = tested on: MOLT-4
SW-620 = tested on: SW-620
HT-29 = tested on: HT-29
T47D = tested on: T47D
SK-MEL-2 = tested on: SK-MEL-2
SK-MEL-28 = tested on: SK-MEL-28

Compound | GI50 (NCI-H23) | GI50 (SF-295) | GI50 (SNB-19) | GI50 (OVCAR-8) | GI50 (HCT-116) | GI50 (SK-MEL-5) | GI50 (UACC-257) | GI50 (MDA-MB-435) | GI50 (PC-3) | GI50 (RPMI-8226) | GI50 (MDA-MB-231) | GI50 (U-251) | GI50 (EKVX) | GI50 (MOLT-4) | GI50 (SW-620) | GI50 (HT-29) | GI50 (T47D) | GI50 (SK-MEL-2) | GI50 (SK-MEL-28)
O=c1c2ccccc2nc(-c2ccc(Cl)cc2)n1O | 48.4 µM (inactive) | 27.5 µM (inactive) | 25.2 µM (inactive) | 16.5 µM (inactive) | 29.7 µM (inactive) | 29.9 µM (inactive) | 24.9 µM (inactive) | 26.5 µM (inactive) | 33.9 µM (inactive) | 26.9 µM (inactive) | > 100 µM (inactive) | 20.8 µM (inactive) | 21.7 µM (inactive) | 17.9 µM (inactive) | 33.7 µM (inactive) | 45.7 µM (inactive) | > 100 µM (inactive) | – | –
CC1C2(C)OC(=N)C(C#N)(C(c3ccccc3)O2)C1(C#N)C#N (configuration not stated) | 28.2 µM (inactive) | 86.5 µM (inactive) | 55.2 µM (inactive) | 30.4 µM (inactive) | 21.2 µM (inactive) | 16.7 µM (inactive) | 25.2 µM (inactive) | 33.3 µM (inactive) | 22.8 µM (inactive) | – | 16.9 µM (inactive) | 18.7 µM (inactive) | 21.4 µM (inactive) | 25.4 µM (inactive) | > 10 µM (inactive) | 18.1 µM (inactive) | 20 µM (inactive) | 16.9 µM (inactive) | > 10 µM (inactive)
COc1ccc(O[C@H](CO)C[C@@H]2COC(C)(C)O2)cc1 | > 100 µM (inactive) | > 100 µM (inactive) | > 100 µM (inactive) | > 100 µM (inactive) | > 100 µM (inactive) | > 100 µM (inactive) | > 100 µM (inactive) | > 100 µM (inactive) | > 100 µM (inactive) | > 100 µM (inactive) | > 100 µM (inactive) | > 100 µM (inactive) | > 100 µM (inactive) | > 100 µM (inactive) | > 100 µM (inactive) | > 100 µM (inactive) | – | > 100 µM (inactive) | > 100 µM (inactive)
NC(=O)C(=Cn1c(=S)[nH]c2ccc([N+](=O)[O-])cc21)C(N)=O | > 100 µM (inactive) | > 100 µM (inactive) | > 100 µM (inactive) | > 100 µM (inactive) | > 100 µM (inactive) | > 100 µM (inactive) | > 100 µM (inactive) | > 100 µM (inactive) | – | – | > 100 µM (inactive) | > 100 µM (inactive) | 19.7 µM (inactive) | > 100 µM (inactive) | > 100 µM (inactive) | > 100 µM (inactive) | > 100 µM (inactive) | > 100 µM (inactive) | > 100 µM (inactive)
COc1ccc(C[N+](C)(C)N)cc1OC | > 10 µM (inactive) | > 10 µM (inactive) | > 10 µM (inactive) | > 10 µM (inactive) | > 10 µM (inactive) | > 10 µM (inactive) | > 10 µM (inactive) | > 10 µM (inactive) | > 10 µM (inactive) | > 10 µM (inactive) | > 10 µM (inactive) | > 10 µM (inactive) | > 100 µM (inactive) | > 10 µM (inactive) | > 10 µM (inactive) | > 10 µM (inactive) | – | > 100 µM (inactive) | > 10 µM (inactive)
CC/C(=N/O)c1ccc(Br)s1 | > 100 µM (inactive) | > 100 µM (inactive) | 66.1 µM (inactive) | > 100 µM (inactive) | > 100 µM (inactive) | > 100 µM (inactive) | > 100 µM (inactive) | > 100 µM (inactive) | > 100 µM (inactive) | – | > 100 µM (inactive) | > 100 µM (inactive) | 5.61 µM (inactive) | 44.7 µM (inactive) | > 100 µM (inactive) | > 100 µM (inactive) | 70 µM (inactive) | > 100 µM (inactive) | > 100 µM (inactive)
OCC(O)C(Cl)CCl (configuration not stated) | > 100 µM (inactive) | > 100 µM (inactive) | > 100 µM (inactive) | > 100 µM (inactive) | > 100 µM (inactive) | > 100 µM (inactive) | > 100 µM (inactive) | – | > 100 µM (inactive) | – | > 100 µM (inactive) | > 100 µM (inactive) | > 100 µM (inactive) | > 100 µM (inactive) | > 100 µM (inactive) | > 100 µM (inactive) | > 100 µM (inactive) | – | > 100 µM (inactive)
CCC(=O)Nc1ccc(NC(C#N)c2cccc(Oc3ccccc3)c2)cc1 (configuration not stated) | 45.2 µM (inactive) | 45.7 µM (inactive) | > 100 µM (inactive) | 26.2 µM (inactive) | 34.5 µM (inactive) | 22.6 µM (inactive) | – | 35.5 µM (inactive) | 63.4 µM (inactive) | 23.1 µM (inactive) | – | – | 67.6 µM (inactive) | 4.29 µM (inactive) | 38.7 µM (inactive) | 33.8 µM (inactive) | 42.3 µM (inactive) | 35 µM (inactive) | 53.3 µM (inactive)
Nc1nc(O)nc2sc3c(c12)CCCC3 | > 100 µM (inactive) | – | 55.8 µM (inactive) | > 100 µM (inactive) | 57 µM (inactive) | > 100 µM (inactive) | 63.1 µM (inactive) | – | > 100 µM (inactive) | 38.5 µM (inactive) | 98.4 µM (inactive) | > 100 µM (inactive) | 7.48 µM (inactive) | 99.3 µM (inactive) | > 100 µM (inactive) | 68.2 µM (inactive) | 64.9 µM (inactive) | > 100 µM (inactive) | 25.2 µM (inactive)
CCOC(=O)Nc1cc2c(c(N)n1)N=C(c1ccc(OC)cc1)CN2 | 0.0692 µM (active) | 0.000269 µM (active) | 0.000349 µM (active) | 0.000895 µM (active) | 0.000251 µM (active) | < 0.0001 µM (active) | 0.186 µM (active) | < 0.0001 µM (active) | – | < 0.01 µM (active) | – | < 0.0001 µM (active) | 0.00104 µM (active) | < 0.0001 µM (active) | < 0.0001 µM (active) | 0.000637 µM (active) | 0.582 µM (active) | < 0.01 µM (active) | 0.0057 µM (active)
C=CCc1c(O)c2ccccc2[nH]c1=O | > 100 µM (inactive) | > 100 µM (inactive) | > 100 µM (inactive) | > 100 µM (inactive) | > 100 µM (inactive) | > 100 µM (inactive) | > 100 µM (inactive) | > 100 µM (inactive) | > 100 µM (inactive) | > 100 µM (inactive) | > 100 µM (inactive) | > 100 µM (inactive) | > 100 µM (inactive) | > 100 µM (inactive) | > 100 µM (inactive) | > 100 µM (inactive) | – | – | > 100 µM (inactive)
CN(C)CCNC(=O)Cn1ccc(=O)c2cc([N+](=O)[O-])ccc21 | > 100 µM (inactive) | > 100 µM (inactive) | > 100 µM (inactive) | – | > 100 µM (inactive) | > 100 µM (inactive) | > 100 µM (inactive) | > 100 µM (inactive) | > 100 µM (inactive) | > 100 µM (inactive) | – | > 100 µM (inactive) | > 100 µM (inactive) | > 100 µM (inactive) | > 100 µM (inactive) | > 100 µM (inactive) | > 100 µM (inactive) | > 100 µM (inactive) | > 100 µM (inactive)
COc1ccc(-c2c(C#N)c(-c3ccccc3)n(NS(=O)(=O)c3ccccc3)c(=O)c2C#N)cc1 | – | > 100 µM (inactive) | 92.7 µM (inactive) | 97.1 µM (inactive) | > 100 µM (inactive) | 55.1 µM (inactive) | > 100 µM (inactive) | > 100 µM (inactive) | 59 µM (inactive) | 29.2 µM (inactive) | > 100 µM (inactive) | 71.8 µM (inactive) | > 100 µM (inactive) | 27.6 µM (inactive) | > 100 µM (inactive) | > 100 µM (inactive) | – | 94.6 µM (inactive) | > 100 µM (inactive)
CC(=N)OC1CC2CCC1(C)C2(C)C (configuration not stated) | > 100 µM (inactive) | > 100 µM (inactive) | – | > 100 µM (inactive) | > 100 µM (inactive) | > 100 µM (inactive) | > 100 µM (inactive) | > 100 µM (inactive) | > 100 µM (inactive) | > 100 µM (inactive) | > 100 µM (inactive) | > 100 µM (inactive) | > 100 µM (inactive) | > 100 µM (inactive) | > 100 µM (inactive) | > 100 µM (inactive) | > 100 µM (inactive) | – | > 100 µM (inactive)
CC1CC(OP(=O)(OCc2ccccc2)OCc2ccccc2)[C@@H](OCc2ccccc2)C(OCc2ccccc2)C1OCc1ccccc1 (some centres not stated) | 25.3 µM (inactive) | 75.5 µM (inactive) | 46.8 µM (inactive) | > 100 µM (inactive) | 17.9 µM (inactive) | 62.5 µM (inactive) | 76.6 µM (inactive) | – | 23.4 µM (inactive) | > 100 µM (inactive) | > 100 µM (inactive) | 20.1 µM (inactive) | 34.1 µM (inactive) | 11.6 µM (inactive) | > 100 µM (inactive) | 67.9 µM (inactive) | 41.8 µM (inactive) | > 100 µM (inactive) | > 100 µM (inactive)
COCC(O)Cn1ccnc1[N+](=O)[O-] (configuration not stated) [MISONIDAZOLE] | > 100 µM (inactive) | > 100 µM (inactive) | > 100 µM (inactive) | > 100 µM (inactive) | > 100 µM (inactive) | – | > 100 µM (inactive) | – | – | > 100 µM (inactive) | – | > 100 µM (inactive) | > 100 µM (inactive) | > 100 µM (inactive) | > 100 µM (inactive) | > 100 µM (inactive) | – | > 100 µM (inactive) | > 100 µM (inactive)
